Measured values as given in article PMC6609034, “Unraveling the role of the secretor antigen in human rotavirus attachment to histo-blood group antigens” (PLoS Pathogens, 2019).

How the values were obtained:
VP8* P[6] = assay: ELISA-like binding assay to biotinylated HBGAs; design: species or system human rotavirus; conditions: biotinylated PAA glycan 2 μg/ml, VP8* 10 μg/ml
Source text: (§1) A panel of biotinylated sugar antigens including Le^a, Le^b, Le^c (lacto-N-biose; LNB), H type-1, H type-2 and blood group A and B trisaccharides were purchased from Glyconz (Fig 1 and S1 Table). These glycans are biotinylated neoglyconjugates of a poly[N-(2-hydroxyethyl)acrylamide] (PAA) with a size from 30 to 50 KDa. This forms a flexible polymer ideal for a multivalent presentation of glycans. Immobilized streptavidin F96 black plates (Nunc) were coated with the biotinylated oligosaccharides (2 μg/ml) in milli-Q water and incubated during 1 hour at 37°C. After functionalization the plates were washed once with PBS containing 0.05% of Tween 20 (PBS-T) and the VP8* proteins were added (10 μg/ml) and incubated at 4°C overnight. After three washes with PBS-T, a rabbit polyclonal antibody anti GST (1:1,000) (Abcam) was added and the plates were incubated one hour at 37°C. Then, the plates were washed three times with PBS-T and incubated for 1 h at 37°C with 1:10,000 dilution of horseradish peroxidase (HRP)-conjugated goat anti-rabbit (Abcam). After three washes with PBS-T, the binding was detected using QuantaBlue reagent (ThermoFisher) kit, as recommended by the manufacturer. Fluorescence units were registered by a MultiScan microplate reader. All the binding assays were performed in triplicate.

VP8* P[4] = assay: ELISA-like binding assay to biotinylated HBGAs; design: species or system human rotavirus; conditions: biotinylated PAA glycan 2 μg/ml, VP8* 10 μg/ml
Source text: as §1

CC(=O)NC1C(O)OC(CO)C(O)C1OC1OC(CO)C(O)C(O)C1OC1OC(C)C(O)C(O)C1O (stereo not drawn) [H1, Fuc-α1,2-Gal-β1,3-GlcNAc]
binding (ELISA-like) (VP8* P[6]): recognized
binding (ELISA-like) (VP8* P[4]): recognized
